Starred links: 1 amine or outer side, 2 acyl side, 3 side chain; linkers in the order of their positions; H or OH if unused. Non-standard residues stand in square brackets, D forms with d. Residues, ends and D or L forms follow the SMILES beside them. Groups on a side chain read outwards from the residue. *: point of attachment. C18 diacid = O=C(O)CCCCCCCCCCCCCCCCC(=O)*; γGlu = O=C(O)[C@H](CCC(=O)[*:2])N[*:1]; AEEA = NCCOCCOCC(=O)O; Aib = CC(C)(N)C(=O)O
Columns and labels:
human GLP-1 receptor [1] = target: T1, human GLP-1 receptor (Homo sapiens, UniProt P43220); test: Assay (I)(a) GLP-1 receptor activation, CRE luciferase reporter gene assay in BHK cells; format: cell-based; conditions: without presence of serum albumin; read-out: GLP-1R EC50 (pM) [Assay (I)(a)]
T1 construct: expressed in transfected cells; host or cells: membranes of BHK cells (parent BHKTS13), clone FCW467-12A
Procedure: The purpose of this example was to test the activity or potency, of the glucagon derivatives of the invention, in vitro. The in vitro potency is the measure of human GLP-1 receptor (GLP-1R) or glucagon receptor (glucagonR) activation, respectively, in a whole cell assay. In vitro potency was determined by measuring the response of human GLP-1 or glucagon receptor, respectively, in a reporter gene assay. The assay was performed in a stably transfected BHK cell line that expresses either the human GLP-1 receptor or the human glucagon receptor and contains the DNA for the cAMP response element (CRE) coupled to a promoter and the gene for firefly luciferase (CRE luciferase). […] When assay incubation was completed, the luciferase substrate (luciferin) was added and the enzyme converted luciferin to oxyluciferin and produces bioluminescence. The luminescence was measured as the readout for the assay. The cells used in this assay (clone FCW467-12A/KZ10-1) were BHK cells with BHKTS13 as a parent cell line. The cells were derived from a clone (FCW467-12A) that expresses the human GLP-1 receptor and were established by further transfection with CRE luciferase to obtain the current clone. The cells were cultured at 5% CO2 in DMEM medium with 10% FBS, 1×GlutaMAX, 1 mg/ml G418, 240 nM MTX (methotrexate) and 1% pen/strep (penicillin/streptomycin). They were aliquoted and stored in liquid nitrogen. Before each assay, an aliquot was taken up and washed three times in PBS before being suspended at the desired concentration in assay medium. For 96-well plates the suspension was made to give a final concentration of 5×10EE3 cells/well. The following chemicals were used in the assay: Pluronic F-68 (10%) (Gibco 2404), ovalbumin (Sigma A5503), DMEM w/o phenol red (Gibco 11880-028), 1 M Hepes (Gibco 15630), Glutamax 100× (Gibco 35050) and steadylite plus (PerkinElmer 6016757). Assay Medium consisted of DMEM w/o phenol red, 10 mM Hepes, 1× GlutaMAX, 2% Ovalbumin and 0.2% Pluronic F-68. Cell stocks were thawed in a 37° C. water bath. Cells were washed three times in PBS. The cells were counted and adjusted to 5×10EE3 cells/50 μl (1×10EE5 cells/ml) in Assay Medium. A 50 μl aliquot of cells was transferred to each well in the assay plate. Stocks of the test compounds and reference compounds were diluted to a concentration of […] in Assay Medium. Compounds were diluted 10-fold to give the following concentrations: 2×10EE-6 M, 2×10EE-7 M, 2×10EE-8 M; 2×10EE-9 M, 2×10EE-10 M, 2×10EE-11 M, 2×10EE-12 M and 2×10EE-13 M. For each compound a blank assay medium control was also included. A 50 μl aliquot of compound or blank was transferred from the dilution plate to the assay plate. Compounds were tested at the following final concentrations: 1×10EE-6 M, 1×10EE-7 M, 1×10EE-8 M; 1×10EE-9 M, 1×10EE-10 M, 1×10EE-11 M and 1×10EE-12 M and 1×10EE-13 M. The assay plate was incubated for 3 h in a 5% CO2 incubator at 37° C. The assay plate was removed from the incubator and allowed to stand at room temperature for 15 min. A 100 μl aliquot of steadylite plus reagent was added to each well of the assay plate (reagent is light sensitive). Each assay plate was covered with aluminum foil to protect it from light and shaken for 30 min at room temperature. Each assay plate was read in a Perkin Elmer TopCount NXT instrument. The data from the TopCount instrument was transferred to GraphPad Prism software. The software performed a non-linear regression (log(agonist) vs response-Variable slope (four parameter)). EC50 values were calculated by the software and reported in pM.

human GLP-1 receptor [2] = target: T1, human GLP-1 receptor; test: Assay (II)(a) GLP-1 receptor binding, 125I-GLP-1 displacement SPA on BHK membranes; conditions: without presence of serum albumin; read-out: GLP-1R IC50 (nM) [Assay (II)(a)]
Procedure: The GLP-1 receptor (GLP-1R) binding is a measure of affinity of a compound for the human GLP-1 receptor. The receptor binding of each compound to the human GLP-1 receptor was measured in a displacement binding assay. In this type of assay a labelled ligand (in this case 125I-GLP-1) is bound to the receptor. Each derivative was added in a series of concentrations to isolated membranes containing the human GLP-1 receptor and displacement of the labelled ligand was monitored. The receptor binding was reported as the concentration at which half of the labelled ligand was displaced from the receptor, the IC50 value. In order to test the binding of the derivatives to albumin, the assay may be performed in a very low concentration of serum albumin (max. 0.001% final assay concentration) as well as in the presence of a (considerably) higher concentration of serum albumin (2.0% final assay concentration). An increase of the IC50 value, in the presence of serum albumin indicates an affinity to serum albumin and represents a method to predict a protracted pharmacokinetic profile of the test substance in animal models. The following chemicals were used in the assay: DMEM w/o phenol red (Gibco 11880-028), Pen/strep (Invitrogen 15140-122), G418 (Invitrogen 10131-027), 1 M Hepes (Gibco 15630), EDTA (Invitrogen 15575-038), PBS (Invitrogen 14190-094), fetal calf serum (Invitrogen 16140-071), EGTA, MgCl2 (Merck 1.05832.1000), Tween 20 (Amresco 0850C335), SPA particles (wheat germ agglutinin (WGA) SPA beads, Perkin Elmer RPNQ0001), [125I]-GLP-1]-(7-36)NH2 (produced in-house), OptiPlate™-96 (Perkin Elmer). Buffer 1 consisted of 20 mM Na-HEPES plus 10 mM EDTA and pH was adjusted to 7.4. Buffer 2 consisted of 20 mM Na-HEPES plus 0.1 mM EDTA and pH was adjusted to 7.4. Assay buffer consisted of 50 mM HEPES supplemented with 5 mM EGTA, 5 mM MgCl2, 0.005% Tween 20 and pH was adjusted to 7.4. The cells used in this assay (clone FCW467-12A) were BHK cells with BHKTS13 as a parent cell line. The cells express the human GLP-1 receptor. The cells were grown at 5% CO2 in DMEM, 10% fetal calf serum, 1% Pen/Strep (Penicillin/Streptomycin) and 1.0 mg/ml of the selection marker G418. To make a membrane preparation the cells were grown to approximately 80% confluence. The cells were washed twice in phosphate-buffered saline and harvested. The cells were pelleted using a brief centrifugation and the cell pellet was kept on ice. The cell pellet was homogenised with ULTRA-THURRAX dispersing instrument for 20-30 seconds in a suitable amount of buffer 1 (e.g., 10 ml). The homogenate was centrifuged for 15 minutes. The pellet was re-suspended (homogenised) in 10 ml buffer 2 and centrifuged. This step was repeated once more. The resulting pellet was re-suspended in buffer 2 and the protein concentration was determined. The membranes were aliquoted and stored at minus 80° C. • 1. For the receptor binding assay, 50 μl of the assay buffer was added to each well of an assay plate. • 2. Test compounds were serially diluted to give the following concentrations: 8×10EE-7 M, 8×10EE-8 M, 8×10EE-9 M, 8×10EE-10 M, 8×10EE-11 M, 8×10EE-12 M and 8×10EE-13 M. Twenty-five μl were added to appropriate wells in the assay plate. • 3. Cell membrane aliquots were thawed and diluted to their working concentration. Fifty μl were added to each well in the assay plate. • 4. WGA SPA beads were suspended in assay buffer at 20 mg/ml. The suspension was diluted to 10 mg/ml in assay buffer just prior to addition to the assay plate. Fifty μl were added to each well in the assay plate. • 5. The incubation was started by adding 25 μl of […] solution of [125I]-GLP-1]-(7-36)NH2 to each well of the assay plate. A 25 μl aliquot was reserved for measuring total counts/well. • 6. The assay plate was incubated for 2 h at 30° C. • 7. The assay plate was centrifuged for 10 min. • 8. The assay plate was read in a Perkin Elmer TopCount NXT instrument. […]

T1 sequence (P43220 24-463): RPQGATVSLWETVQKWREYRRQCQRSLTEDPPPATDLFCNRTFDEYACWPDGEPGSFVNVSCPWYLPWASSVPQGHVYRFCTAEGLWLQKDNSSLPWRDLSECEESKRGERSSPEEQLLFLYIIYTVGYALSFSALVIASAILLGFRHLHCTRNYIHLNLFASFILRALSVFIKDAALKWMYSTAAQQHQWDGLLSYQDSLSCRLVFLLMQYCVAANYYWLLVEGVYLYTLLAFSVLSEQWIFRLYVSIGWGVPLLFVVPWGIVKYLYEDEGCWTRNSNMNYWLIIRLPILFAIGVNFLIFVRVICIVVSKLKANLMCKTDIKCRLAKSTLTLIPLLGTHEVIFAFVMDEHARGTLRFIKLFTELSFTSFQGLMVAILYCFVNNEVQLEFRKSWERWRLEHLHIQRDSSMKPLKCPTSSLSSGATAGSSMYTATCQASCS

| EC50 (human GLP-1 receptor [1]) | IC50 (human GLP-1 receptor [2]) | Structure (SMILES) |
| --- | --- | --- |
| 2 pM | 0.3 nM | CC[C@H](C)[C@H](NC(=O)[C@H](CC(C)C)NC(=O)[C@H](Cc1c[nH]c2ccccc12)NC(=O)[C@H](CCCCNC(=O)COCCOCCNC(=O)COCCOCCNC(=O)CC[C@H](NC(=O)CC[C@H](NC(=O)CC[C@H](NC(=O)CCCCCCCCCCCCCCCCC(=O)O)C(=O)O)C(=O)O)C(=O)O)NC(=O)[C@@H](NC(=O)[C@H](Cc1ccccc1)NC(=O)[C@H](CCC(=O)O)NC(=O)[C@H](CCCNC(=N)N)NC(=O)[C@H](C)NC(=O)[C@H](CCCNC(=N)N)NC(=O)[C@H](CCCCN)NC(=O)[C@H](C)NC(=O)[C@H](CC(=O)O)NC(=O)[C@H](CC(C)C)NC(=O)[C@H](Cc1ccc(O)cc1)NC(=O)[C@H](CCCCN)NC(=O)[C@H](CO)NC(=O)[C@H](Cc1ccc(O)cc1)NC(=O)[C@H](CC(=O)O)NC(=O)[C@H](CO)NC(=O)[C@@H](NC(=O)[C@H](Cc1ccccc1)NC(=O)[C@@H](NC(=O)CNC(=O)[C@H](CCC(N)=O)NC(=O)C(C)(C)NC(=O)[C@@H](N)Cc1c[nH]cn1)[C@@H](C)O)[C@@H](C)O)C(C)C)C(=O)N[C@@H](CO)C(=O)N[C@H](C(N)=O)[C@@H](C)O [Chem. 2, N^ε24-[2-[2-[2-[[2-[2-[2-[[(4S)-4-carboxy-4-[[(4S)-4-carboxy-4-[[(4S)-4-carboxy-4-(17-carboxyheptadecanoylamino)butanoyl]amino]butanoyl]amino]butanoyl]amino]ethoxy]ethoxy]acetyl]amino]ethoxy]ethoxy]acetyl]-[Aib2,Ala16,Lys17,Arg20,Glu21,Lys24,Ile27,Ser28]-Glucagon amide] (H-H[Aib]QGTFTSDYSKYLDAKRAREFVK([AEEA-AEEA-γGlu-γGlu-γGlu-C18 diacid])WLIST-NH2; N-terminus assumed) |
| 2 pM | 0.1 nM | CC[C@H](C)[C@H](NC(=O)[C@H](CC(C)C)NC(=O)[C@H](Cc1c[nH]c2ccccc12)NC(=O)[C@H](CCC(N)=O)NC(=O)[C@@H](NC(=O)[C@H](Cc1ccccc1)NC(=O)[C@H](CC(=O)O)NC(=O)[C@H](CCCNC(=N)N)NC(=O)[C@H](C)NC(=O)[C@H](CCCNC(=N)N)NC(=O)[C@H](CCCNC(=N)N)NC(=O)[C@H](CO)NC(=O)[C@H](CCC(=O)O)NC(=O)[C@H](CC(C)C)NC(=O)[C@H](Cc1ccc(O)cc1)NC(=O)[C@H](CCCCN)NC(=O)[C@H](CO)NC(=O)[C@H](CC(C)C)NC(=O)[C@H](CC(=O)O)NC(=O)[C@H](CO)NC(=O)[C@@H](NC(=O)[C@H](Cc1ccccc1)NC(=O)[C@@H](NC(=O)CNC(=O)[C@H](CCC(N)=O)NC(=O)C(C)(C)NC(=O)[C@@H](N)Cc1c[nH]cn1)[C@@H](C)O)[C@@H](C)O)C(C)C)C(=O)N[C@@H](CCCCNC(=O)COCCOCCNC(=O)COCCOCCNC(=O)CC[C@H](NC(=O)CC[C@H](NC(=O)CC[C@H](NC(=O)CCCCCCCCCCCCCCCCC(=O)O)C(=O)O)C(=O)O)C(=O)O)C(=O)N[C@H](C(N)=O)[C@@H](C)O [Chem. 3, N^ε28-[2-[2-[2-[[2-[2-[2-[[(4S)-4-carboxy-4-[[(4S)-4-carboxy-4-[[(4S)-4-carboxy-4-(17-carboxyheptadecanoylamino)butanoyl]amino]butanoyl]amino]butanoyl]amino]ethoxy]ethoxy]acetyl]amino]ethoxy]ethoxy]acetyl]-[Aib2,Leu10,Glu15,Arg20,Ile27,Lys28]-Glucagon amide] (H-H[Aib]QGTFTSDLSKYLESRRARDFVQWLIK([AEEA-AEEA-γGlu-γGlu-γGlu-C18 diacid])T-NH2; N-terminus assumed) |
